For test [1], the system named is adjuvant arthritic rats. Briefly: adjuvant arthritis test, evaluation of paw volume of the non-injected hind paw. It is filed as in vivo, female Wistar, Lewis rats. The settings on record: for inhibition at 75 mg/kg: Aspirin 75 mg/kg/day alone; for inhibition at 150 mg/kg: Aspirin 150 mg/kg/day alone; for inhibition at 300 mg/kg: Aspirin 300 mg/kg/day alone; for inhibition at 50 mg/kg: Acetaminophen 50 mg/kg/day alone; for inhibition at 200 mg/kg: Acetaminophen 200 mg/kg/day alone; for inhibition at 800 mg/kg: Acetaminophen 800 mg/kg/day alone. An excerpt: (§1) The efficacy of the novel combination of this invention in inhibiting inflammation and osteogenic degeneration is particularly seen in the adjuvant arthritis test. […] The adjuvant arthritis test, a test in which adjuvant arthritis which results both in inflammation and osteogenic changes is induced by Mycobacterium butvricum and in which the effect of the test compounds on each effect can be Determined, is considered to be .most useful for evaluation of compounds which may be suitable for the treatment of rheumatoid arthritis and other arthritic diseases. The test procedure, in which the effect on inflammation is determined by paw volume changes and the effect on osteogenic changes is determined by microscopic observation, is described by Wong et al, in J. Pharmacol.Exp.Ther. 185, 127-138, 1973, and is employed in the present determination of the potentiation of the antiarthritic properties of 5-aroyl-l-loweralkyl-pyrrole-2-acetic acid derivatives by aspirin or acetaminophen.
(§2) Briefly, in this procedure, adjuvant arthritis is induced in female Wistar, Lewis rats (Charles River Breeding Laboratories. Inc., Wiimington, Mass.) weighing 160-190 gm by a single subcutaneous injection of 0.75 mg Mycobacterium butyricum (Difco) into the left hind paw. The non-injected hind paw remains a normal size for the first seven days. Swelling begins to appear in the non-injected paw of the first rats on Day 8. Using the paw volume determination technique (a technique in which rat paws are dippedin mercury to the hairline and the volume of displacement determined by a modified Van Arman mercury displacement method as described in the aforementioned paper of Wong et al), the time progress curve of volume changes in the non-injected (contralateral) paw is followed. […] The mean onset time for 100 rats is found to be 11.6 days with a standard deviation of 1.9 days and the frequency of onset time values distributed normally between Days 8 and 19. Thus, determinations of antiarthritic activity are made in the period Day 11 to Day 28.
(§3) For determination of anti-inflammatory properties two different evaluations are made: (a) the evaluation of paw volume during the Phase II and Phase III periods and, (b) the evaluation of osteogenic (bone) degenration during the Phase IV period.
For evaluation of paw volume, adjuvant arthritic rats with early but significant signs of arthritis in the contralateral paw are selected on Day 11 and randomly assigned to the various groups of 10 animals in each group. All test -animals are dosed-daily (per os) with the test compound, preferably as sodium salt, or in saline for 17 days (Days 11 to 27 inclusive). Control animals are dosed with an equivalent volume of saline. The paw volumes of the non-injected paws are determined initially on Day 11 and again on Days 15, 18, 22, 25, and 28. The paw volumes are then compared with normal paw volumes of adjuvant arthitic rats previously determined from a reference curve relating normal paw volume to body weight. The volume of each individual rat which is greater than the normal volume is utilized in the analysis of the data. Values for drug treated animals are expressed as a percent inhibition of the paw volume change relative to the mean value for saline controls. Data is evaluated statistically and ED50 values with 95 percent confidence limits are calculated. The method for statistical analysis is described in detail in the aforementioned paper of Wong et al. The term "ED50" refers to the dose of drug required to produce 50 percent antagonism of the paw volume changes observed in the saline treated adjuvant arthritis controls. Suppression of paw volume changes reflects anti-inflammatory and antiarthritic activity of a test drug.

Test [2] concerns adjuvant arthritic rats. In words: adjuvant arthritis test, evaluation of bone degeneration (osteogenic changes) in the non-injected hind paw. The format is in vivo, female Wistar, Lewis rats. Conditions: for ED50: drug alone, suppression of osteogenic changes, data from several experiments pooled, read-out: ED50 and 95 percent C.L.
Text: as §1, §2, §3
For evaluation of bone degenerations, normal and adjuvant arthritic rats are sacrificed under C02, after the paw volume measurements have been completed on Day 28. The hind legs are removed above the knees and skinned and the soft tissues dissected away with care to avoid injury to bone and articular structures. The leg bones are then immersed in 2 percent potassium hydroxide solution for approximately four to five days until the remaining soft tissues becomes properly macerated and/or transparent, and the bones are fully visible. The leg bones are stained with Alizarin Red (0.01 percent in 2 percent KOH) for eight hours, and then processed through increasing concentrations of glycerol in water (20, 40, 60, 80 and 100 percent) for purposes of clearing the tissues for microscopic observation. The distal end of the tibiae, the tarsals, metatarsals, phalanges, and sesamoids are evaluated under a Stereozoom Microscope (a special type of dissecting microscope, product of Bausch and Lomb).
Osteogenic changes for each bone (in 31 bone categories) in the non-injected hind paw are graded on a scale of from 0 to 10 (increasing numerical value corresponding to increasing severity of bone degeneration). A total bone degeneration score is obtained (maximum score/paw = 310 points) and then expressed as a percent score. The mean percent score (95 percent confidence limits) for saline control groups from 26 experiments (184 animals) is found to be 53.4 (50.9-55.9). Percent score values for drug treated animals are expressed as a percent inhibition relative to the mean for the saline control group. Data is evaluated statistically and ED50 values with 95 percent confidence limits are calculated.

Setting [3] is: Rattus norvegicus, 672 h, Day 28, read-out: Percent Inhibition ± S.E. (Day 28).
Setting [4] is: Rattus norvegicus, 672 h, Table VIII, Day 28, read-out: Percent Inhibition ± S.E. (Day 28).
[5] abbreviates: Rattus norvegicus, 672 h, Table IX, Day 28, read-out: Percent Inhibition ± S.E. (Day 28).
The mark [6] stands for this setting: Rattus norvegicus, read-out: Percent Inhibition of Paw Volume ± S.E.

With `CC(=O)Oc1ccccc1C(=O)O` [Aspirin, acetylsalicylic acid], the “dose of Aspirin required to suppress the tolmetin ED50 by 50 percent” value in the test on adjuvant arthritic rats [1] (Aspirin given in combination with tolmetin) is recorded as 83.6 (60.5 - 101) mg/kg/day. In addition, the inhibition at 25 mg/kg in the test on adjuvant arthritic rats [1] (Rattus norvegicus, 672 h, Aspirin 25 mg/kg/day alone, Day 28, read-out: Percent Inhibition ± S.E. (Day 28)) turned out to be 16.4 ± 11.4%; in the test with adjuvant arthritic rats [2] (Rattus norvegicus, bone degeneration, Aspirin 25 mg/kg/day alone, read-out: Percent Inhibition ± S. E.), 15.2 ± 12.6%. The inhibition at 75 mg/kg with adjuvant arthritic rats [1] (setting [3]) was determined as 39.6 ± 3.6%; in the test with adjuvant arthritic rats [1] (setting [4]) it was 4.1 ± 14.4%; with adjuvant arthritic rats [2] (Rattus norvegicus, bone degeneration, Aspirin 75 mg/kg/day alone, read-out: Percent Inhibition ± S. E.), 29.5 ± 5.6%. Also, the inhibition at 100 mg/kg with adjuvant arthritic rats [1] (Rattus norvegicus, 672 h, Aspirin 100 mg/kg/day alone, Day 28, read-out: Percent Inhibition ± S.E. (Day 28)) was 28.3 ± 8.2%; with adjuvant arthritic rats [2] (Rattus norvegicus, bone degeneration, Aspirin 100 mg/kg/day alone, read-out: Percent Inhibition ± S. E.), 28.3 ± 8.2%. Besides, the inhibition at 150 mg/kg with adjuvant arthritic rats [1] (setting [3]) was 34.2 ± 6%; in the test with adjuvant arthritic rats [1] (setting [4]) it was 33.2 ± 7.6%; in the test with adjuvant arthritic rats [2] (Rattus norvegicus, bone degeneration, Aspirin 150 mg/kg/day alone, read-out: Percent Inhibition ± S. E.) it was 22.9 ± 3.1%. Moreover, the inhibition at 300 mg/kg came out at 66.2 ± 6.3% in the test on adjuvant arthritic rats [1] (setting [3]); 28.9 ± 9.4% with adjuvant arthritic rats [1] (setting [4]); 59.9 ± 5.4% with adjuvant arthritic rats [2] (Rattus norvegicus, bone degeneration, Aspirin 300 mg/kg/day alone, read-out: Percent Inhibition ± S. E.). Further, the 50% effective dose (ED50) came out at 322 mg/kg with adjuvant arthritic rats [1] (Rattus norvegicus, aspirin alone, data from several similar experiments pooled, read-out: ED50 and its 95 percent C.L.); 382 mg/kg in the test on adjuvant arthritic rats [2] (Rattus norvegicus). Also, the “Percent Inhibition ± S. E.” value in the test on adjuvant arthritic rats [2] (bone degeneration, Aspirin 25 mg/kg/day alone) is reported as 20.1 ± 5.2%.
For `Cn1c(CC(=O)O)cc(Cl)c1C(=O)c1ccc(Cl)cc1` [4-chloro-5-p-chlorobenzoyl-1-nethyl-pyrrole-2-acetic acid], in the test on adjuvant arthritic rats [1] (Rattus norvegicus, 672 h, Table IX, ED50 of the pyrrole compound without acetaminophen, Day 28, read-out: ED50), the ED50 was 0.054 mg/kg. Moreover, the inhibition at 0.02 mg/kg/day in the test on adjuvant arthritic rats [1] (Rattus norvegicus, 672 h, Table IX, pyrrole compound 0.02 mg/kg/day alone, Day 28, read-out: Percent Inhibition ± S.E. (Day 28)) came out at 18.6 ± 11.7%. Moreover, the inhibition at 0.06 mg/kg/day in the test on adjuvant arthritic rats [1] (Rattus norvegicus, 672 h, Table IX, pyrrole compound 0.06 mg/kg/day alone, Day 28, read-out: Percent Inhibition ± S.E. (Day 28)) is 61.3 ± 5.3%. In addition, in the test on adjuvant arthritic rats [1] (Rattus norvegicus, 672 h, Table IX, pyrrole compound 0.18 mg/kg/day alone, Day 28, read-out: Percent Inhibition ± S.E. (Day 28)), the inhibition at 0.18 mg/kg/day was determined as 78.9 ± 8.7%.
Turning to `Cc1cc(CC(=O)O)n(C)c1C(=O)c1ccc(Cl)cc1` [1,4-dimethyl-5-p-chlorobenzoyl-pyrrole-2-acetic acid], the ED50 in the test with adjuvant arthritic rats [1] (Rattus norvegicus, 672 h, Table VII, ED50 of the pyrrole compound without acetaminophen, Day 28, read-out: ED50) was 0.4 mg/kg; with adjuvant arthritic rats [1] (Rattus norvegicus, 672 h, Table VIII, ED50 of the pyrrole compound without Aspirin, Day 28, read-out: ED50), 0.728 mg/kg. The inhibition at 0.11 mg/kg/day in the test with adjuvant arthritic rats [1] (Rattus norvegicus, 672 h, Table VII, pyrrole compound 0.11 mg/kg/day alone, Day 28, read-out: Percent Inhibition ± S.E. (Day 28)) was found to be 27.4 ± 10.1%. Further, the inhibition at 0.33 mg/kg/day with adjuvant arthritic rats [1] (Rattus norvegicus, 672 h, Table VII, pyrrole compound 0.33 mg/kg/day alone, Day 28, read-out: Percent Inhibition ± S.E. (Day 28)) was determined as 45 ± 6%. Further, the inhibition at 1 mg/kg/day in the test with adjuvant arthritic rats [1] (Rattus norvegicus, 672 h, Table VII, pyrrole compound 1.0 mg/kg/day alone, Day 28, read-out: Percent Inhibition ± S.E. (Day 28)) amounted to 68 ± 7.8%. Further, the inhibition at 0.125 mg/kg/day with adjuvant arthritic rats [1] (Rattus norvegicus, 672 h, Table VIII, pyrrole compound 0.125 mg/kg/day alone, Day 28, read-out: Percent Inhibition ± S.E. (Day 28)) was 17.5 ± 7.5%. Further, in the test on adjuvant arthritic rats [1] (Rattus norvegicus, 672 h, Table VIII, pyrrole compound 0.5 mg/kg/day alone, Day 28, read-out: Percent Inhibition ± S.E. (Day 28)), the inhibition at 0.5 mg/kg/day was 43.8 ± 11.8%. Further, the inhibition at 2 mg/kg/day with adjuvant arthritic rats [1] (Rattus norvegicus, 672 h, Table VIII, pyrrole compound 2.0 mg/kg/day alone, Day 28, read-out: Percent Inhibition ± S.E. (Day 28)) worked out at 68.2 ± 5.3%.
Turning to `CC(=O)Nc1ccc(O)cc1` [Acetaminophen, acetaminophen], the inhibition at 50 mg/kg in the test with adjuvant arthritic rats [1] (setting [5]) was 7.6 ± 6.1%; in the test on adjuvant arthritic rats [1] (setting [6]), 0%; in the test with adjuvant arthritic rats [2] (Rattus norvegicus, Acetaminophen 50 mg/kg/day alone, read-out: Percent Inhibition of Bone Degeneration ± S.E.), 0%. The inhibition at 200 mg/kg is 29 ± 12.8% with adjuvant arthritic rats [1] (setting [5]); 27.2 ± 15.5% with adjuvant arthritic rats [1] (setting [6]); 12.6 ± 6.5% in the test on adjuvant arthritic rats [2] (Rattus norvegicus, Acetaminophen 200 mg/kg/day alone, read-out: Percent Inhibition of Bone Degeneration ± S.E.). The inhibition at 800 mg/kg in the test with adjuvant arthritic rats [1] (setting [5]) is 75.3 ± 3.9%; in the test with adjuvant arthritic rats [1] (setting [6]) it was 67.8 ± 5.7%; with adjuvant arthritic rats [2] (Rattus norvegicus, Acetaminophen 800 mg/kg/day alone, read-out: Percent Inhibition of Bone Degeneration ± S.E.) it was 32.9 ± 3.4%. The ED50 in the test on adjuvant arthritic rats [1] (Rattus norvegicus, po, 672 h, drug given alone per os, Day 28, read-out: ED50 Values and 95 Percent C.L.) stood at 576 mg/kg; with adjuvant arthritic rats [2] (Rattus norvegicus) it was 1670 mg/kg. Further, the minimal effective dose in the test with adjuvant arthritic rats [1] (Rattus norvegicus, given alone, statistically significant difference (p<0.05) from saline treated controls, read-out: minimum effective dose (MED)) came out at 320 mg/kg/day. For the same compound, the “Percent Inhibition ± S.E. (Day 28)” value in the test on adjuvant arthritic rats [1] (Table VII, Dose of Acetaminophen 100 alone, Day 28) came to 2.7 ±17.4%; in the test on adjuvant arthritic rats [1] (Table VII, Dose of Acetaminophen 200 alone, Day 28), 6.6 ± 11.4%; in the test with adjuvant arthritic rats [1] (Table VII, Dose of Acetaminophen 400 alone, Day 28) it was 31.6 ± 6.1%. For the same compound, the “dose of acetaminophen required to suppress the tolmetin ED50 by 50 percent” value with adjuvant arthritic rats [1] (acetaminophen given with tolmetin) was 35.3 (13.4-81.3) mg/kg/day.

The term ED50 denotes the dose at which the effect has come halfway, by size or by number of responders.

For the origin of these results see patent publication EP0006845A1, “Pharmaceutical composition comprising a 5-aroyl-1-C1-5 alkyl-pyrrole-2-acetic acid compound and acetaminophen or acetylsalicylic acid” (McNeilab, Inc., priority 1978, dated 1980).
